In the assay the test system is skin equivalent marketed by EPISKIN (reconstructed epidermis). The assay is described as follows: Synthesis of epidermal ceramides in reconstructed epidermis (14C acetate labelling, HPTLC, densitometry). It counts as cell-based. Conditions: each compound alone at 15 μg/ml, relative to the untreated control; for % increase in ceramides in the epidermis equivalent: 24 hours of treatment; for % increase in the ceramides in the epidermis equivalent: 48 hours of treatment. How it is done: Ascorbic acid and derivatives thereof were tested on a skin equivalent marketed by EPISKIN (LYON, France), after culturing the latter for 7 days. The culture and test media were those included in the kit marketed by the supplier. Each compound was tested individually at 15 μg/ml and in combination with 5 μg/ml (as vitamin C equivalent), in the culture medium. The reconstructed epidermes were treated for 24 hours. The control consisted of an identical epidermis equivalent which was subjected to topical application of culture medium without the test compound.
The reconstructed epidermis was incubated overnight with ^14C acetate (2 μCi/ml) before topical application of vitamin C and derivatives thereof, to monitor the synthesis of the lipids.
At the end of the incubation period, the epidermis equivalent was detached from its collagenic support. The preparation of the lipids of the epidermis equivalent and their analysis by HPTLC or high-performance thin-layer chromatography, were carried out according to the technique and with the buffers described by M. Ponec (1991, Adv. Lipid Res., 24:83-117).
At the end of the migration, densitometric analysis of the autoradiograph was carried out using a densitometer of the FUJI brand, model 1800.
The procedure described in Example 1 was repeated, except that the test was performed over 48 hours instead of 24 hours. In addition, only vitamin C and vitamin CP were tested, the mixture of the two being formulated using 7.5 μg/ml of each vitamin.

Regarding `O=C1O[C@H]([C@@H](O)CO)C(O)=C1O` [Vitamin C, ascorbic acid], the “% increase in ceramides in the epidermis equivalent” value (“% increase in ceramides” below) is given as 54% and the “% increase in the ceramides in the epidermis equivalent” value turned out to be 126%.
Take `O=C1O[C@H]([C@@H](O)CO)C(O)=C1O[C@H]1O[C@H](CO)[C@@H](O)[C@H](O)[C@H]1O` [Vitamin CG, ascorbyl 2-glucoside]: the “% increase in ceramides” value worked out at 69%.
Turning to `O=C1O[C@H]([C@@H](O)CO)C([O-])=C1OP(=O)([O-])[O-].O=C1O[C@H]([C@@H](O)CO)C([O-])=C1OP(=O)([O-])[O-].[Mg+2].[Mg+2].[Mg+2]` [Vitamin CP, Magnesium ascorbyl phosphate], the “% increase in ceramides” value is reported as 99% and the “% increase in the ceramides in the epidermis equivalent” value came out at 148%.
